In article PMC6471485, “Selective Inhibitors of a Human Prolyl Hydroxylase (OGFOD1) Involved in Ribosomal Decoding” (Chemistry (Weinheim an Der Bergstrasse, Germany), 2019):
“Also recorded” adds a separate entry of the source.

Target: T1, OGFOD1 (Homo sapiens, UniProt Q8N543)
T1 sequence (Q8N543 1-542): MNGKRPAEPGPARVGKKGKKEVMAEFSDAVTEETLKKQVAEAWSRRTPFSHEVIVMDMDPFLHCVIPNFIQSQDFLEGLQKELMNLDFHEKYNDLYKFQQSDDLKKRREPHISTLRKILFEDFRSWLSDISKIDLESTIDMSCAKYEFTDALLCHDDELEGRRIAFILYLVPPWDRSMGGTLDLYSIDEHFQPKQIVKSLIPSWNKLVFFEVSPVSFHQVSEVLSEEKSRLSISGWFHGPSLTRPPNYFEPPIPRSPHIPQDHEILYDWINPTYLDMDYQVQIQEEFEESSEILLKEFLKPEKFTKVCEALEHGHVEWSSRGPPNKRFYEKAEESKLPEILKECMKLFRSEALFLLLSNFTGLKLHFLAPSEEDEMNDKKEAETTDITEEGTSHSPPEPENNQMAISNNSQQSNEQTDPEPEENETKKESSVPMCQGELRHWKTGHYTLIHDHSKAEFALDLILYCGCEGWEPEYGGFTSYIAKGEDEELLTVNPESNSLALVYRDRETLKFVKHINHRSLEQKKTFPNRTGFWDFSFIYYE
Assay: CPMG-edited 1H NMR binding experiment with OGFOD1
Conditions: 30 µM inhibitor, 30 µM OGFOD1
Procedure: RapidFire integrator software (Agilent). Percent conversion was calculated in Excel, and IC50 curves were generated using Prism v. 7.0 (GraphPad).
Differential Scanning Fluorimetry (DSF) Assays
Assays consisted of enzyme (2 µM), inhibitor (200 µM), MnCl2 (50 µM), and SYPRO Orange (1:5000 dilution), all prepared in 50 mM HEPES, pH 7.5. Assays were conducted using white 96-well RT-PCR plates. An Opticon thermal cycler (MJ Research Inc) was used to control temperature and measure fluorescence. Data were processed using the OpticonMONITOR Analysis Software, while curve fitting was performed in Prism […]
Stable small-molecule inhibitor conformations were investigated using the MM2 force field method in ChemBio3D 11.0 (PerkinElmer Informatics). Protein structures were aligned using PyMOL version 2.0 (Schrödinger, LLC). The small-molecule inhibitors were then modelled into the protein active sites, overlaying them with the already contained inhibitor, if applicable (e.g., FG2216 with PHD2, PDB 3HQU; N-oxalylglycine with OGFOD1, PDB 4NHX). […]
CPMG Binding Experiments: Binding of the inhibitors to the proteins was monitored using Carr-Purcell-Meiboom-Gill (CPMG)-edited 1H spectra. […]
Competition Experiments by 2OG Displacement: 2OG displacement assays[12] were performed using CPMG-edited 1H spectra. […] The 2OG methylene resonance at 2.35 ppm was monitored. […]

| Structure (SMILES) | binding to OGFOD1 by 1H CPMG NMR, in words (listed as CCT3) | binding to OGFOD1 by 1H CPMG NMR, in words (listed as CCT4) |
| --- | --- | --- |
| Cn1c(O)c(C(=O)CCc2ccccc2)c(=O)n(C)c1=O [compound 26] | strong binding; also recorded: strongly bind to OGFOD1 |  |
| Cn1c(O)c(C(=O)CCc2cccs2)c(=O)n(C)c1=O [compound 42] |  | strong binding; also recorded: strongly bind to OGFOD1 |
